# Source: US20240285630A1, “Methods and compositions for improving exercise performance” (MEZZION PHARMA CO., LTD., priority 2021, published 2024)
# Assays:
# [1] = tested on: adolescents with Fontan physiology; experiment: FUEL Trial peripheral arterial tonometry (EndoPAT), log-transformed reactive hyperemia index; type: in vivo, human; details: for Log-transformed reactive hyperemia index, difference Week 26 - baseline, mean (SD): paired data
# Excerpt: (§1) Baseline clinical testing completed before drug initiation included a blood draw to measure brain-type natriuretic peptide (BNP) level, a cardiopulmonary exercise test (CPET) using a standardized cycle ergometer ramp protocol, a standardized echocardiogram, and an assessment of peripheral vascular function using peripheral arterial tonometry (PAT) measured by finger cuff (EndoPAT; Itamar Medical, Israel). Participants who achieved maximal effort, defined as respiratory exchange ratio (RER)≥1.10 at peak exercise during CPET, were eligible for randomization and study drug initiation. […] End-of-study clinical testing included repeat measurement of serum BNP, CPET, echocardiogram, and PAT.
# Baseline clinical testing completed before drug initiation included a blood draw to measure brain-type natriuretic peptide (BNP) level, a cardiopulmonary exercise test (CPET) using a standardized cycle ergometer ramp protocol (previously described in children and adolescents with Fontan physiology, Sleeper L A, Anderson P, Hsu D T, Mahony L, McCrindle B W, Roth S J, Saul J P, Williams R V, Geva T, Colan S D, Clark B J and Pediatric Heart Network I. Design of a large cross-sectional study to facilitate future clinical trials in children with the Fontan palliation. Am Heart J. 152(3):427-433 (September 2006), a standardized echocardiogram, and an assessment of peripheral vascular function using peripheral arterial tonometry (PAT) measured by finger cuff (EndoPAT; Itamar Medical, Israel). Participants who achieved maximal effort, defined as respiratory exchange ratio (RER)>1.10 at peak exercise during CPET, were eligible for randomization and study drug initiation. […] End-of-study clinical testing included repeat measurement of serum BNP, CPET, echocardiogram, and PAT. […]
# [2] = tested on: adolescents with Fontan physiology; experiment: FUEL Trial resting data (heart rate, blood pressure, oxygen saturation); type: in vivo, human; details: baseline to 26-week
# Excerpt: as §1
# The primary analysis used the intention-to-treat population to evaluate the difference in the change in the primary outcome between treatment arms. This difference was assessed with an analysis of covariance (ANCOVA) with fixed factors for ventricular morphology (single left versus single right or mixed) and treatment group, with a continuous covariate of baseline max VO2. For those without data at the 26-week visit, this value was imputed as equal to the baseline value (no change). […] Secondary outcomes of continuous data points were analyzed in the manner described for the primary outcome. […]
smiles,measurement,setting,value
"CCCOc1ccc(S(=O)(=O)NCCC2CCCN2C)cc1-c1nc2c(CCC)nn(C)c2c(=O)[nH]1 (stereo not shown) [Udenafil, udenafil]","Log-transformed reactive hyperemia index, difference LS Mean (SE), udenafil vs placebo",[1]; ANCOVA,0.02 (0.030)
same,"Log-transformed reactive hyperemia index, difference Week 26 - baseline, mean (SD)",[1],0.06 (0.301)
same,"Log-transformed reactive hyperemia index, difference Week 26 - baseline, mean (SD)",[1]; listed as udenafil,0.07
same,"Change in resting heart rate, respiratory rate, or systolic blood pressure, udenafil vs placebo",[2],no difference
